Results as given in PubChem BioAssay (NCI).
Where “and” joins values, the source holds several entries; their conditions need not be identical. Equal values may be shown once.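 48-hour exposure; five concentrations; linearly interpolated endpoints. Abbreviation: GI50, concentration required for 50% inhibition of growth. The concentration for full growth arrest is given as TGI.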

Assays:
Experiment in all cases: growth of human tumour cells (NCI), 48 h
[1] = test system: NCI-H460 lung
[2] = test system: SK-OV-3 ovarian
[3] = test system: 786-0 renal
[4] = test system: EKVX NSCLC
[5] = test system: HOP-92 NSCLC
[6] = test system: OVCAR-8 ovarian
[7] = test system: T-47D breast
[8] = test system: MDA-MB-435
[9] = test system: HT29 colon
[10] = test system: NCI/ADR-RES ovarian

| SMILES | TGI [1] | TGI [2] | TGI [3] | TGI [4] | TGI [5] | TGI [6] | TGI [7] | TGI [8] | TGI [9] | TGI [10] | GI50 [1] | GI50 [2] | GI50 [3] | GI50 [9] | GI50 [4] | GI50 [5] | GI50 [6] | GI50 [10] | GI50 [8] | GI50 [7] |
| --- | --- | --- | --- | --- | --- | --- | --- | --- | --- | --- | --- | --- | --- | --- | --- | --- | --- | --- | --- | --- |
| CC1=NN(C(=O)Nc2ccc(Cl)cc2)C(=O)C2CCC(=O)N12 (stereo unspecified) | > 100 µM | > 100 µM | > 100 µM | > 100 µM | > 100 µM | > 100 µM |  |  |  |  |  |  |  |  |  |  |  |  |  |  |
| CC1=C(C)C(=O)O[C@@H]([C@](C)(O)[C@]2(O)CC[C@@]3(O)[C@@H]4C[C@H](O)[C@]5(O)[C@@H](O)C=CC(=O)[C@]5(C)[C@H]4CC[C@]23C)C1 | > 100 µM | > 100 µM | > 100 µM | > 100 µM | > 100 µM | > 100 µM | > 100 µM | > 100 µM | > 100 µM |  |  |  |  |  |  |  |  |  |  |  |
| Oc1ccc2ccccc2c1N=Nc1cc(Cl)ccc1Cl |  | 41.2 µM | 17 µM | 20.6 µM | > 50 µM | 30.2 µM |  | > 50 µM | > 50 µM | > 50 µM |  |  |  |  |  |  |  |  |  |  |
| COc1cc2oc(-c3ccccc3)cc(=O)c2c(O)c1C | > 100 µM | > 100 µM | > 100 µM | > 100 µM | > 100 µM | > 100 µM |  |  | > 100 µM |  |  |  |  |  |  |  |  |  |  |  |
| O=C(O)c1ccc(C(O)(c2ccccc2)c2ccccc2)cc1 |  | > 100 µM | > 100 µM | > 100 µM |  | > 100 µM | > 100 µM | > 100 µM |  | > 100 µM |  |  |  |  |  |  |  |  |  |  |
| COc1cccc(-c2cc(=O)c3cc(N4CCOCC4)ccc3[nH]2)c1 | > 100 µM | 36.8 µM | > 100 µM | > 100 µM |  | 0.337 µM and 0.152 µM |  | 0.0256 µM | 0.883 µM and 0.125 µM | 0.271 µM and 0.751 µM | 0.272 µM | 0.0268 µM and 0.044 µM | 0.0602 µM | 0.0359 µM and 0.029 µM | 0.0608 µM | 0.246 µM | 0.0303 µM |  |  |  |
| Cc1ccc(S(=O)(=O)N2CCN(C=S)CC2)cc1 | > 100 µM | > 100 µM | > 100 µM | > 100 µM |  | > 100 µM |  |  | > 100 µM |  |  |  |  |  |  |  |  |  |  |  |
| O=C1C=CC(=C(c2ccccc2)c2ccc(O)cc2)C=C1 | 41.7 µM |  | > 100 µM | 35.9 µM | 36.1 µM | 44.1 µM |  | 32.5 µM | 43.4 µM | > 100 µM |  |  |  |  |  |  |  |  |  |  |
| O=C(OCCCl)C1OC(n2cc(F)c(=O)[nH]c2=O)CC1O (stereo unspecified) | > 100 µM | > 100 µM | > 100 µM | > 100 µM | > 100 µM | > 100 µM |  |  | > 100 µM |  |  |  |  |  |  |  |  |  |  |  |
| O=C(Cc1nc2ccccc2o1)C(=O)Nc1cccc(Cl)c1 | > 100 µM | > 100 µM | > 100 µM | > 100 µM | > 100 µM | > 100 µM |  |  | > 100 µM |  |  |  |  |  |  |  |  |  |  |  |
| N#CC(C#N)=C1CCOc2ccc(F)cc21 | 30.4 µM | 30.7 µM | 32.8 µM | 9.3 µM | 15.9 µM | 43.7 µM |  | > 100 µM | > 100 µM | 29.6 µM | 14.2 µM | 16.3 µM | 16.2 µM | 64.2 µM |  | 2.05 µM | 19 µM | 16.1 µM | > 100 µM |  |
| N#CCC(=O)N/N=C1/C(=O)N(c2cc(Cl)ccc2Cl)C(=O)C(=O)C1c1nc2ccccc2s1 (stereo unspecified) | > 100 µM | > 100 µM | > 100 µM | > 100 µM | 83.1 µM | > 100 µM |  |  | > 100 µM |  |  |  |  |  |  |  |  |  |  |  |
| COc1ccc(C2CC(c3ccc(Nc4ccnc5cc(Cl)ccc45)cc3)=NN2C=O)cc1 (stereo unspecified) | > 100 µM | > 100 µM | > 100 µM | > 100 µM |  | > 100 µM | 15 µM | 5.22 µM | > 100 µM | > 100 µM | > 100 µM | > 100 µM | 32 µM | 3.81 µM | > 100 µM |  | 69.8 µM | 7.05 µM | 1.72 µM | 1.38 µM |
| O=C1C(=C([O-])c2ccccc2)C(=O)c2ccccc21.O=C1C(=C([O-])c2ccccc2)C(=O)c2ccccc21.[Mn+2] |  |  | > 100 µM | > 100 µM |  | > 100 µM |  |  | > 100 µM |  |  |  | > 100 µM | 43.2 µM | > 100 µM |  | > 100 µM |  |  |  |
| CCn1c2ccccc2c(=O)c2c(OC)ccc(OC)c21 | > 100 µM | > 100 µM | > 100 µM | > 100 µM | 98.7 µM | > 100 µM |  |  | > 100 µM |  |  |  |  |  |  |  |  |  |  |  |
| O=[N+]([O-])c1ccc(C(Cl)C(Cl)c2ccc(C(Cl)C(Cl)c3ccc([N+](=O)[O-])cc3[N+](=O)[O-])cc2)c([N+](=O)[O-])c1 (stereo unspecified) | 2.15 µM and 0.723 µM | > 62 µM and 51.1 µM | 5.62 µM and 1.09 µM | 6.18 µM and 2.49 µM | 3.28 µM | 2.13 µM and 0.918 µM |  |  | 4.57 µM and 1.08 µM |  | 0.249 µM | 6.36 µM | 0.321 µM | 0.313 µM | 0.559 µM |  | 0.282 µM |  |  |  |
| CCCCCCn1c(SC)nc(COC(=O)NC)c1COC(=O)NC | 37.3 µM | 33.2 µM | 30.3 µM | 27.1 µM |  | 34.3 µM | 35 µM | 41.9 µM | 36.2 µM | 69.3 µM |  |  |  |  |  |  |  |  |  |  |
| CC1(C)N=C(N)N=C(N)N1c1ccc(OCCCNC(=O)Nc2cccc(S(=O)(=O)F)c2)c(Cl)c1 | > 100 µM | > 100 µM | > 100 µM | > 100 µM | > 100 µM | > 100 µM | > 100 µM | > 100 µM |  | > 100 µM | 0.511 µM | 86.2 µM | 1.11 µM |  | 20.3 µM | 3.06 µM | 7.02 µM | > 100 µM | 2.14 µM | 35.1 µM |
| O=C(CCc1ccccc1)NS(=O)(=O)c1ccccc1 | > 100 µM | > 100 µM | > 100 µM | > 100 µM | > 100 µM | > 100 µM |  |  | > 100 µM |  |  |  |  |  |  |  |  |  |  |  |
| CCC1C(C(=O)Nc2ccccc2C)=C(C)NC(C)=C1c1ccccc1C (stereo unspecified) | > 67.1 µM | > 100 µM | > 100 µM | > 100 µM | > 100 µM | > 100 µM |  |  | > 100 µM |  |  |  |  |  |  |  |  |  |  |  |
